{"source": "paper PMC6019362", "about": "“^99mTc标记T7肽及其在裸鼠非小细胞肺癌模型体内的生物分布研究” (Chinese Journal of Lung Cancer, 2014)", "key": {"荷人NCI-H157裸鼠肺癌模型": {"test_system": "荷人NCI-H157裸鼠肺癌模型", "set-up": "species or system BALB/c裸鼠", "conditions": "in vivo", "description": "将NCI-H157细胞株培养至对数生长期，弃去培养液，PBS清洗2次，0.25%胰酶消化，收集细胞，离心，生理盐水重悬并计数。无菌条件下，每只裸鼠右后肢背部皮下注射6×10^6个/200 μL的NCI-H157细胞悬液。裸鼠置于天津市实验动物中心SPF级动物房饲养，当肿瘤长径达0.6 cm-1.0 cm时进行实验(约30 d)。 将荷瘤裸鼠随机分成5组(0.5 h、1 h、2 h、4 h和8 h)，每组5只，分别尾静脉注射3.7 MBq/100 μL的^99mTc-T7溶液，注射后分别在0.5 h、1 h、2 h、4 h和8 h股动脉放血处死，分别取心、肝、脾、肺、肾、肌肉、骨骼、脑、肿瘤、小肠、胃，称湿重，测量γ计数，计算各脏器的每克组织注射剂量百分比(%ID/g)并分析肿瘤/非肿瘤(T/NT)比值。"}, "[1]": {"format": "in vitro ADME, human", "description": "薄层色谱法检测标记率及放化纯度，以硅胶板为固定相，丙酮作为展开系统，毛细管点样，放射性γ计数器进行检测。稳定性检测:取500 μL的^99mTc-T7溶液分别加入1 mL的生理盐水和1 mL人血清中，37 ℃孵育8 h，用薄层色谱法检测放化纯度。"}}}
{"sequence": "TMPFLFCNVNDVCNFASRNDYSKKK [^99mTc-T7, 羰基锝法标记的肿瘤抑素T7肽, ^99mTc(CO)3^+ labelled 25-mer, integrin αvβ3 targeted imaging probe]", "values": [{"measurement": "肿瘤/肌肉放射性比值 (T/NT)", "setting": "荷人NCI-H157裸鼠肺癌模型", "value": "> 5"}, {"measurement": "血脑屏障通过 (blood-brain barrier passage)", "setting": "荷人NCI-H157裸鼠肺癌模型", "value": "不能正常通过血脑屏障"}, {"measurement": "8 h血放射性摄取值 (%ID/g) 相对于0.5 h", "setting": "荷人NCI-H157裸鼠肺癌模型; mouse, iv, 3.7 MBq, 8 h", "value": 26, "unit": "%"}, {"measurement": "放化纯 (radiochemical purity) after incubation", "setting": "[1]", "value": "> 90", "unit": "%"}]}
